Reference: patent US12084445B2, “Broad-spectrum carbapenems” (VenatoRx Pharmaceuticals, Inc., priority 2018, dated 2024)

Tests used:
Format in all cases: cell-based
[1] = system: S. aureus USA600; experiment: broth microdilution MIC assay, S. aureus USA 600; details: Staphylococcus aureus; Table 4; S. aureus USA600; read-out: S. aureus USA600 MIC
Experimental: (§1) To determine the ability of test compounds to potentiate the inhibition of the growth of bacterial strains, classic cell-based broth microdilution MIC assays were employed. MIC assays are performed according to CLSI methods except where otherwise noted (CLSI, 2011 and CLSI, 2009). The reference strains S. aureus ATCC 29213 (methicillin sensitive), S. aureus ATCC 33591 (methicillin-resistant), E. coli ATCC 25922 (wild-type/QC strain), P. aeruginosa ATCC 27853 (wild-type/QC strain), and the clinical isolate P. aeruginosa PA 8 were used to determine the ability of the exemplary carbapenem compounds to inhibit bacterial growth. An expanded panel of methicillin resistance S. aureus (MRSA) and Pseudomonas was also used to determine the ability of exemplary carbapenem compounds to inhibit bacterial growth across a broader representation of those species. To determine activity in MRSA and in addition to S. aureus ATCC 33591, S. aureus USA 300, USA 400 and USA 600, some of the most common clones found to cause human infection, were also used. To further gauge the impact on the carbapenem compounds due to various resistance mechanisms in Pseudomonas, the following strains were included: P. aeruginosa 35151 (hyper-permeable strain), P. aeruginosa AmexAB-OprM (an efflux pump knockout), and P. aeruginosa PA 3 (a clinical isolate of reduced carbapenem susceptibility). Briefly, cryo-preserved bacterial cultures of clinical strains are streaked for isolation on appropriate agar medium, in this case Mueller Hinton II agar. Following incubation to allow formation of colonies, these plates are sealed with parafilm and stored refrigerated for up to two weeks. For preparation of assay inocula and to ensure low variability, at least 5 colonies are picked from the agar plates with an inoculating loop and aseptically transferred to a culture tube containing 3 mL of Mueller-Hinton Broth (supplemented with divalent cations to required levels based on Manufacturers' specification). The broth culture is grown for 3-5 hours at 37° C. with shaking at 200 rpm. Meanwhile, 2-fold serial dilutions of test compounds are conducted in a 96 well plate with a final volume of 75 μL per well at 2-fold the final desired concentration. After the dilution plates are set up the growing cultures are then diluted in a cuvette containing MH II broth and the optical density is measured at 600 nm. Inocula are diluted such that 75 μL of this culture in Mueller-Hinton Broth results in a starting bacterial concentration of 5×10^5 CFU/mL when added to the dilution plates. The plates are incubated 16-20 hours at 37° C. The MIC is read visually as the lowest concentration well with no bacterial growth.
(§2) Representative results are shown in Tables 3, 4, and 5 where A represents an MIC>32 μg/mL, B represents an MIC between 8 and 32 μg/mL inclusive, C represents an MIC between 1 and 4 μg/mL inclusive, and D represents an MIC of <1 μg/mL. NT=Not Tested.

[2] = system: P. aeruginosa ΔmexAB-OprM (an efflux pump knockout); experiment: broth microdilution MIC assay, P. aeruginosa ΔmexAB-OprM; details: Pseudomonas aeruginosa, 20 h, read-out: P. aeruginosa ΔmexAB-OprM MIC
Experimental: as §1, §2

[3] = system: S. aureus USA 300; experiment: broth microdilution MIC assay, S. aureus USA 300; details: Staphylococcus aureus; Table 4; S. aureus USA300; read-out: S. aureus USA300 MIC
Experimental: as §1, §2

[4] = system: P. aeruginosa ATCC 27853 (wild-type/QC strain); experiment: broth microdilution MIC assay, P. aeruginosa ATCC 27853; details: Pseudomonas aeruginosa, ATCC27853; Table 5; P. aeruginosa 27853; read-out: P. aeruginosa 27853 MIC
Experimental: as §1, §2

[5] = system: S. aureus ATCC 33591 (methicillin-resistant); experiment: broth microdilution MIC assay, S. aureus ATCC 33591; details: Staphylococcus aureus, ATCC33591; Table 4; S. aureus 33591; read-out: S. aureus 33591 MIC
Experimental: as §1, §2

[6] = system: E. coli ATCC 25922 (wild-type/QC strain); experiment: broth microdilution MIC assay, E. coli ATCC 25922; details: Escherichia coli, ATCC25922; Table 4; E. coli 25922; read-out: E. coli 25922 MIC
Experimental: as §1, §2

[7] = system: P. aeruginosa 35151 (hyper-permeable strain); experiment: broth microdilution MIC assay, P. aeruginosa 35151; details: Pseudomonas aeruginosa, read-out: P. aeruginosa 35151 MIC
Experimental: as §1, §2

C[C@@H](O)[C@H]1C(=O)N2C(C(=O)O)=C(SC3CN(CC4CCCNC4)C3)[C@H](C)[C@H]12 (stereo partly drawn) [Example 57, (4R,5S,6S)-6-((R)-1-hydroxyethyl)-4-methyl-7-oxo-3-((1-(piperidin-3-ylmethyl)azetidin-3-yl)thio)-1-azabicyclo[3.2.0]hept-2-ene-2-carboxylic acid]
MIC [1]: 1 to 4 mg/L
MIC [2]: 1 to 4 mg/L
MIC [3]: 1 to 4 mg/L
MIC [4]: 1 to 4 mg/L
MIC [5]: 8 to 32 mg/L
MIC [6]: < 1 mg/L
MIC [7]: < 1 mg/L

C[C@@H](O)[C@H]1C(=O)N2C(C(=O)O)=C(SC3CN(C[C@@H]4CCNC4)C3)[C@H](C)[C@H]12 [Example 58, (4R,5S,6S)-6-((R)-1-hydroxyethyl)-4-methyl-7-oxo-3-((1-(((R)-pyrrolidin-3-yl)methyl)azetidin-3-yl)thio)-1-azabicyclo[3.2.0]hept-2-ene-2-carboxylic acid]
MIC [1]: 1 to 4 mg/L
MIC [2]: 1 to 4 mg/L
MIC [3]: 1 to 4 mg/L
MIC [4]: 1 to 4 mg/L
MIC [5]: 1 to 4 mg/L
MIC [6]: < 1 mg/L
MIC [7]: < 1 mg/L

C[C@@H](O)[C@H]1C(=O)N2C(C(=O)O)=C(SC3CN(C[C@H]4CCNC4)C3)[C@H](C)[C@H]12 [Example 59, (4R,5S,6S)-6-((R)-1-hydroxyethyl)-4-methyl-7-oxo-3-((1-(((S)-pyrrolidin-3-yl)methyl)azetidin-3-yl)thio)-1-azabicyclo[3.2.0]hept-2-ene-2-carboxylic acid]
MIC [1]: 1 to 4 mg/L
MIC [2]: 1 to 4 mg/L
MIC [3]: 1 to 4 mg/L
MIC [4]: 1 to 4 mg/L
MIC [5]: 1 to 4 mg/L
MIC [6]: < 1 mg/L
MIC [7]: < 1 mg/L

C[C@@H](O)[C@H]1C(=O)N2C(C(=O)O)=C(SC3CN(C[C@H]4CNCCO4)C3)[C@H](C)[C@H]12 [Example 60, (4R,5S,6S)-6-((R)-1-hydroxyethyl)-4-methyl-3-((1-(((R)-morpholin-2-yl)methyl)azetidin-3-yl)thio)-7-oxo-1-azabicyclo[3.2.0]hept-2-ene-2-carboxylic acid]
MIC [1]: 1 to 4 mg/L
MIC [2]: 1 to 4 mg/L
MIC [3]: 1 to 4 mg/L
MIC [4]: 8 to 32 mg/L
MIC [5]: 8 to 32 mg/L
MIC [6]: < 1 mg/L
MIC [7]: < 1 mg/L

C[C@@H](O)[C@H]1C(=O)N2C(C(=O)O)=C(SC3CN(C[C@@H]4CNCCO4)C3)[C@H](C)[C@H]12 [Example 61, (4R,5S,6S)-6-((R)-1-hydroxyethyl)-4-methyl-3-((1-(((S)-morpholin-2-yl)methyl)azetidin-3-yl)thio)-7-oxo-1-azabicyclo[3.2.0]hept-2-ene-2-carboxylic acid]
MIC [1]: 1 to 4 mg/L
MIC [2]: 1 to 4 mg/L
MIC [3]: 1 to 4 mg/L
MIC [4]: 1 to 4 mg/L
MIC [5]: 8 to 32 mg/L
MIC [6]: < 1 mg/L
MIC [7]: < 1 mg/L

C[C@@H](O)[C@H]1C(=O)N2C(C(=O)O)=C(SC3CN(C[C@H]4CC[C@H](N)CC4)C3)[C@H](C)[C@H]12 [Example 62, (4R,5S,6S)-3-((1-(((1r,4R)-4-aminocyclohexyl)methyl)azetidin-3-yl)thio)-6-((R)-1-hydroxyethyl)-4-methyl-7-oxo-1-azabicyclo[3.2.0]hept-2-ene-2-carboxylic acid]
MIC [1]: < 1 mg/L
MIC [2]: 1 to 4 mg/L
MIC [3]: 1 to 4 mg/L
MIC [4]: 1 to 4 mg/L
MIC [5]: 1 to 4 mg/L
MIC [6]: < 1 mg/L
MIC [7]: < 1 mg/L

C[C@@H](O)[C@H]1C(=O)N2C(C(=O)O)=C(S[C@@H]3CCN(CC4CNCCS4)C3)[C@H](C)[C@H]12 (stereo partly drawn) [Example 63, (4R,5S,6S)-6-((R)-1-hydroxyethyl)-4-methyl-7-oxo-3-(((3R)-1-(thiomorpholin-2-ylmethyl)pyrrolidin-3-yl)thio)-1-azabicyclo[3.2.0]hept-2-ene-2-carboxylic acid]
MIC [1]: 1 to 4 mg/L
MIC [2]: 1 to 4 mg/L
MIC [3]: 1 to 4 mg/L
MIC [4]: 8 to 32 mg/L
MIC [5]: 1 to 4 mg/L
MIC [6]: < 1 mg/L
MIC [7]: < 1 mg/L

C[C@@H](O)[C@H]1C(=O)N2C(C(=O)O)=C(SC3CN(C[C@H]4CC[C@@H](N)CC4)C3)[C@H](C)[C@H]12 [Example 64, (4R,5S,6S)-3-((1-(((1s,4S)-4-aminocyclohexyl)methyl)azetidin-3-yl)thio)-6-((R)-1-hydroxyethyl)-4-methyl-7-oxo-1-azabicyclo[3.2.0]hept-2-ene-2-carboxylic acid]
MIC [1]: < 1 mg/L
MIC [2]: 1 to 4 mg/L
MIC [3]: < 1 mg/L
MIC [4]: 1 to 4 mg/L
MIC [5]: 1 to 4 mg/L
MIC [6]: < 1 mg/L
MIC [7]: < 1 mg/L

C[C@@H](O)[C@H]1C(=O)N2C(C(=O)O)=C(S[C@@H]3CCN(CC4CCNCC4(C)C)C3)[C@H](C)[C@H]12 (stereo partly drawn) [Example 65, (4R,5S,6S)-3-(((3R)-1-((3,3-dimethylpiperidin-4-yl)methyl)pyrrolidin-3-yl)thio)-6-((R)-1-hydroxyethyl)-4-methyl-7-oxo-1-azabicyclo[3.2.0]hept-2-ene-2-carboxylic acid]
MIC [1]: 1 to 4 mg/L
MIC [2]: 1 to 4 mg/L
MIC [3]: 1 to 4 mg/L
MIC [4]: 8 to 32 mg/L
MIC [5]: 1 to 4 mg/L
MIC [6]: < 1 mg/L
MIC [7]: < 1 mg/L

CNC1CCC(CN2CC(SC3=C(C(=O)O)N4C(=O)[C@H]([C@@H](C)O)[C@H]4[C@H]3C)C2)CC1 (stereo partly drawn) [Example 66, (4R,5S,6S)-6-((R)-1-hydroxyethyl)-4-methyl-3-((1-(((1s,4S)-4-(methylamino)cyclohexyl)methyl)azetidin-3-yl)thio)-7-oxo-1-azabicyclo[3.2.0]hept-2-ene-2-carboxylic acid]
MIC [1]: 1 to 4 mg/L
MIC [2]: 1 to 4 mg/L
MIC [3]: 1 to 4 mg/L
MIC [4]: 1 to 4 mg/L
MIC [5]: 1 to 4 mg/L
MIC [6]: < 1 mg/L
MIC [7]: < 1 mg/L

C[C@@H](O)[C@H]1C(=O)N2C(C(=O)O)=C(SC3CN(C[C@H]4CC[C@H](NC(=N)N)CC4)C3)[C@H](C)[C@H]12 [Example 67, (4R,5S,6S)-3-((1-(((1r,4R)-4-guanidinocyclohexyl)methyl)azetidin-3-yl)thio)-6-((R)-1-hydroxyethyl)-4-methyl-7-oxo-1-azabicyclo[3.2.0]hept-2-ene-2-carboxylic acid]
MIC [1]: < 1 mg/L
MIC [2]: 1 to 4 mg/L
MIC [3]: 1 to 4 mg/L
MIC [4]: 1 to 4 mg/L
MIC [5]: 1 to 4 mg/L
MIC [6]: < 1 mg/L
MIC [7]: < 1 mg/L

CN[C@H]1CC[C@H](CN2CC(SC3=C(C(=O)O)N4C(=O)[C@H]([C@@H](C)O)[C@H]4[C@H]3C)C2)CC1 [Example 68, (4R,5S,6S)-6-((R)-1-hydroxyethyl)-4-methyl-3-((1-(((1r,4R)-4-(methylamino)cyclohexyl)methyl)azetidin-3-yl)thio)-7-oxo-1-azabicyclo[3.2.0]hept-2-ene-2-carboxylic acid]
MIC [1]: 1 to 4 mg/L
MIC [2]: 1 to 4 mg/L
MIC [3]: 1 to 4 mg/L
MIC [4]: 1 to 4 mg/L
MIC [5]: 1 to 4 mg/L
MIC [6]: < 1 mg/L
MIC [7]: < 1 mg/L

CCN[C@H]1CC[C@H](CN2CC(SC3=C(C(=O)O)N4C(=O)[C@H]([C@@H](C)O)[C@H]4[C@H]3C)C2)CC1 [Example 69, (4R,5S,6S)-3-((1-(((1r,4R)-4-(ethylamino)cyclohexyl)methyl)azetidin-3-yl)thio)-6-((R)-1-hydroxyethyl)-4-methyl-7-oxo-1-azabicyclo[3.2.0]hept-2-ene-2-carboxylic acid]
MIC [1]: 1 to 4 mg/L
MIC [2]: 1 to 4 mg/L
MIC [3]: 1 to 4 mg/L
MIC [4]: 1 to 4 mg/L
MIC [5]: 1 to 4 mg/L
MIC [6]: < 1 mg/L
MIC [7]: < 1 mg/L
